# Measurements: patent US20240033237A1, “USE OF A-KETOGLUTARATE IN MANUFACTURE OF MEDICAMENT” (TONGJI UNIVERSITY, priority 2019, published 2024)
# Columns and labels:
# NF-κB signaling pathway = experiment: Activation of NF-κB signaling pathway in IL-1β-stimulated chondrocytes (whole-genome sequencing, nuclear P65 western blot); type: cell-based, mouse
# Method: Mouse chondrocytes were obtained from 7-day-old C57BL/6 mice (Shanghai Slac laboratory animal Co., Ltd.), and the procedure was as follows: under aseptic surgical conditions, bilateral knee cartilages of C57 mice were carefully stripped and digested with 0.2% neutral collagenase (Serva, Germany) for 8 h; cell precipitates were obtained by centrifugation, and the cells were resuspended in modified Eagle medium (DMEM) (Gibco, USA) containing 10% FBS, inoculated in culture dishes, and cultured with high-sugar DMEM medium (containing 10% FBS, 100 U/mL penicillin and 100 mg/L streptomycin) at 37° C. in a 5% CO2 constant temperature incubator. The medium was changed for the first time at 48 h. […] The cells were collected by centrifugation and resuspended, and the concentration was adjusted for inoculation in culture dishes. The cells were subcultured by the above method, and the obtained cells were labeled as P1, P2, P3 generations, etc. P1 generation mouse chondrocytes cultured in Embodiment 1 were subjected to western blot analysis through operations including the following: • 1. Collecting of protein samples: The culture medium was sucked out, and the cells were washed twice with PBS at 4° C. and then dried. […] The protein concentration was determined by the BCA Protein Quantification Kit. […]
# skin hair follicles = experiment: Regeneration level of skin hair follicles in mice, intradermal injection, histological staining; type: in vivo; details: 12-month-old mice, 4 weeks after injection, vs PBS group
# Method: The skin on the back of posterior limbs of 12-month-old aged mice was taken, and the treatment group was intradermally injected with PBS-diluted α-KG (1 μl of dimethyl-α-KG dissolved in 4 μl of PBS). A sham operation was performed and PBS was injected as a control. Histological staining was performed to observe the changes of skin hair follicles at 4 weeks after injection.
smiles,measurement,setting,value
"COC(=O)CCC(=O)C(=O)OC [α-KG, dimethyl-α-ketoglutarate]",expression of P65 in the NF-κB signaling pathway in the nucleus,"NF-κB signaling pathway; western blot, IL-1β 0 min, 15 min, 30 min, 60 min, 7 mM α-KG",significantly inhibited
same,expression of many genes in the NF-κB signaling pathway,"NF-κB signaling pathway; whole-genome sequencing, IL-1β stimulation, α-KG complemented",suppressed
same,number of skin hair follicles,skin hair follicles,significantly increased
